Data on one substance can be found in patent US6365628B1 (Thia Medica AS, priority 1998, dated 2002).

One data set addresses T1, PPARα (Homo sapiens, UniProt Q07869).
T1 sequence (Q07869 1-468): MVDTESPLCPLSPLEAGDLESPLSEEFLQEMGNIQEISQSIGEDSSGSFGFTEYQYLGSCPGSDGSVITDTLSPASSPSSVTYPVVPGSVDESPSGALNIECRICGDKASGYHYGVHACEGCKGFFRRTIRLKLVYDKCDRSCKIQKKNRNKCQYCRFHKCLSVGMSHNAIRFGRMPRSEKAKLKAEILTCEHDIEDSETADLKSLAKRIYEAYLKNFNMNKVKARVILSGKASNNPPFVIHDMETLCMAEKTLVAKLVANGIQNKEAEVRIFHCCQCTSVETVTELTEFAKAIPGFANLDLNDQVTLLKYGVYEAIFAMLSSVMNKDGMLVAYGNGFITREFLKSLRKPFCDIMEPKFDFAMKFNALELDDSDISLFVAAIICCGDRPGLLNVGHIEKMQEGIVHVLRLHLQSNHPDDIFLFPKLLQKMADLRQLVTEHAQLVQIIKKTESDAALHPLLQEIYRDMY
Briefly: Ligand of PPARα. In kind it is binding.

In data set [1] the test system is chinese hamster ovary cells. Briefly: Chromosomal aberrations in cultured chinese hamster ovary cells. In kind it is cell-based. Particulars: doses tested 12-140 mg/ml.
The subject of another data set is Wistar rats. Briefly: Lipid lowering effect in normal Wistar rats (Example 4). The format is in vivo, rat. Particulars: gavage once daily for 7 days, dose 150 mg/day/kg body weight.
For the next data set, the system named is obese Zucker fa/fa rats. Briefly: Fatty acid composition in liver and plasma of obese Zucker fa/fa rats (Example 19). In kind it is in vivo, rat. Particulars: 300 mg/day/kg gavage once daily for 10 days, delta-9-desaturated product of TTA. Here is the method:
Male obese Zucker fa/fa rats, weighing 100 g at the start of the experiment, were housed in pairs in metal wire cages in a room maintained at 12 h light-dark cycles and a constant temperature of 20±3° C. The animals were acclimatised for at least one week under these conditions before the start of the experiment.
TTA and palmitic acid (control), was suspended in 0.5% (w/v) carboxymethyl cellulose (CMC) and administered at a dose of 300 mg/day/kg body weight, by gastric intubation (gavage) once daily for 10 days. The rats were fasted for 2 hours before termination of the experiment. Blood and organs were collected. Total lipids were extracted from liver and plasma. The lipids were evaporated, saponified and esterified prior to separation using a Carlo Erba 2900 gas-chromatograph.

Data set [2] deals with obese Zucker (fa/fa) rats. Briefly: Liver mitochondrial fatty acid oxidation, CPT-I and CPT-II after TTA feeding (Example 16). In kind it is in vivo, rat. To be noted: chow with 0.15% TTA. Here is the method:
Freshly isolated livers from individual old Zucker rats, were homogenised in ice-cold sucrose buffer (0.25 M sucrose, 10 mM HEPES (pH 7.4) and 2 mM EDTA). Post-nuclear and mitochondrial fractions were prepared using preparative differential centrifugation according to DeDuve et al. (De Duve, C., et al., Biochem. J., 60, 604-617 1955.) Modifications, purity and yield were as described earlier (Garras, A., et al., Biochim. Biophys. Acta, 1255, 154-160 1995.). Acid soluble products were measured in post-nuclear and mitochondrial enriched fractions, using [1-^14C]-palmitoyl-CoA and [1-^14C]-palmitoyl-L-carnitine (Radiochemical Centre, Amersham, England) as substrates as described earlier (Willumsen, N., et al., J. Lipid Res., 34, 13-22 1993. Carnitine palmitoyltransferase-I and -II activities were measured in the post-nuclear and mitochondrial fractions essentially as described by Bremer (Bremer, J., Biochim. Biophys. Acta, 665, 628-631 1981.) and 3-hydroxy-3-methylglutharyl-CoA synthase was measured according to Clinkenbeard et al. (Clinkenbeard, K. D., et al., J. Biol. Chem, 250, 3108-3116 1975.) in the mitochondrial fractions.
RNA extraction (Chomczynski, P., et al., Anal. Biochem., 162, 156-159 1987.), Northern blot analysis and slot blotting of RNA onto nylon filters, and hybridisation to immobilised RNA were performed as earlier described (Vaagenes, H., et al., Biochem. Pharmacol., 56, 1571-1582 1998.). […]
Obese Zucker (fa/fa) rats were given a standard chow either with (n=6) or without (n=5) 0.15% TTA. […] Fatty acid oxidation rates were measured using [1-^14C]-palmitoyl CoA or [1-^14C]-palmitoyl-L-carnitine as substrates (A) CPT-I (B) and CPT-II (C) were measured in the mitochondrial factions. […] The relative mRNA levels were determined by densiometric scanning of the autoradiograms and the different mRNA levels were normalised to the respective 28S rRNA and the means for the controls were set to 1. […] Values are expressed as the mean±S.D.

Experimental for Wistar rats: Phospholipids were measured by the enzymatic method of bioMérieux, Marcy-l {grave over ( )}Etoile, France, Triacylglycerol by the Technicon Method no. SA4-0324L90, USA and Cholesterol by the Technicon Method no. SA4-0305L90, USA.
Male Wistar rats, weighing 180-200 g at the start of the experiment, were housed individually in metal wire cages in a room maintained at 12 h light-dark cycles and a constant temperature of 20±3° C. The animals were acclimatised for one week under these conditions before the start of the experiments.
TTA, TSA and eicosapentaenoic acid (EPA) were suspended in 0.5% (w/v) carboxymethyl cellulose (CMC). Six animals were used for each treatment, and a 0.5% CMC solution was administrated to the rats as control. After administration of the test compound, the rats were fasted for 12 hours and anaesthetised with haloethan. The EPA and the fatty acid derivatives were administered by gastric intubation (gavage) once daily for 7 days. Blood samples were collected by cardiac puncture, and lipid concentrations in plasma were determined as outlined in the method section.

On to Tetradecylthioacetic acid [TTA], for which the “Ligand of PPARα” value on PPARα is “potent ligand”. In addition, the “Chromosomal aberrations in cultured chinese hamster ovary cells” value in data set [1] is “no aberrations were induced”. In addition, in the data set with Wistar rats, the “Plasma lipids (% reduction of control) cholesterol” value was 30 % reduction of control and the “Plasma lipids (% reduction of control) triglycerides” value was 45 % reduction of control. In the data set on obese Zucker fa/fa rats, the “Monounsaturated tetradecylthioacetic acid, fatty acid composition in liver (% of total)” value is 1.1 ± 0.2 % of total and the “Monounsaturated tetradecylthioacetic acid, fatty acid composition in plasma (% of total)” value was 0.2 ± 0.1 % of total. For the same substance, the “Activity and mRNA levels of CPT-I” value in data set [2] (21 days (FIG. 8B)) is reported as “increase”. Also, the “Activity and mRNA levels of CPT-II” value in data set [2] (21 days (FIG. 8C)) was “increase”. For the same substance, the “Increase of liver fatty acid oxidation” value in data set [2] (21 days, palmitoyl-CoA and palmitoyl-L-carnitine as substrates (FIG. 8A)) was “more than 7 fold”.
